This is an account of results in patent US20090317466A1, “Fixed dose pharmaceutical composition comprising hyroxyurea and didanosine” (priority 2008, published 2009).

A short description of the series: Stability of hydroxyurea on removal of citric acid from the composition. The series is classed as physicochemical. The conditions noted are these: removal of the stabilizer citric acid from the composition. From the text:
The commercially available hydroxyurea tablets contain citric acid.

With `NC(=O)NO` [hydroxyurea], the stability of hydroxyurea result is on record as “not significantly affected”.
